Test [1] relates to small ducts from rat pancreas. The settings on record: cited from earlier work.
Another test has as its system Fetal rat islets. Nature of the test: Insulin content of cultured fetal rat islets. It counts as cell-based. The settings on record: 200μ/ml PYY for 5 days, actinomycin D at 0.1, 0.2, 0.5 and 1.0 μg/ml for the last 16 hours. From the text:
(§1) Fetal rat islets were obtained as follows. […] Fetuses were removed from the uterus.

The next test concerns e21 islets. Nature of the test: IBMX stimulated calcium influx in e21 islets. In kind it is cell-based, rat. The settings on record: 1 μM IBMX in 3 mM (low) glucose; non-glucose responsive e21 islets. As to the method: as §1
E21 islet were isolated and cultured according to Example 1. Islets were then treated with 17 mM glucose or 1 μM IBMX in 3 mM (low) glucose (FIG. 2).

For a further test, the system named is E21 fetal islets. Put plainly: Glucose-stimulated insulin release (static insulin release, RIA) in cultured e21 fetal rat islets. The note with it: e21 fetal islets cultured for 5 days with 200 ng/ml peptide.
Where [2] appears, read: confluent duct monolayer, single treatment preferentially 48 hr.

Where two headings read alike, the source gives them in different places. Numbered stars: 1 amine (or outer) side, 2 acyl side, 3 side chain; on linkers, the order of the positions; unused ones are H or OH. Bridge positions count the residues as written; N and C are the ends. Square brackets hold non-standard residues; d marks the D form. Ends that are not written are not given here. Peptide text beside a SMILES is read from it. I, II: the chains in the order shown. Actinocin(9to1) = Cc1c2oc3c(C)ccc(C(=O)[*:1])c3nc-2c(C(=O)[*:2])c(N)c1=O; NMeV = CN[C@H](C(=O)O)C(C)C; Sar = CNCC(=O)O

For the compound `CCCC(=O)[O-].[Na+]` [Na-Butyrate], in test [1] (setting [2]), the induction of differentiation result is “found to induce differentiation”. Turning to `CCCC(=O)Nc1ncnc2c1ncn2[C@@H]1O[C@@H]2COP(=O)(O)O[C@H]2[C@H]1OC(=O)CCC` [dibutyrl cAMP], in test [1] (setting [2]), the induction of differentiation entry is reported as “found to induce differentiation”. For `Cc1c2oc3c(C)ccc(C(=O)N[C@@H]4C(=O)N[C@H](C(C)C)C(=O)N5CCC[C@H]5C(=O)N(C)CC(=O)N(C)[C@@H](C(C)C)C(=O)O[C@@H]4C)c3nc-2c(C(=O)N[C@@H]2C(=O)N[C@H](C(C)C)C(=O)N3CCC[C@H]3C(=O)N(C)CC(=O)N(C)[C@@H](C(C)C)C(=O)O[C@@H]2C)c(N)c1=O` [Actinomycin D, actinomycin D] (I: T[dV]P[Sar][NMeV] / II: T[dV]P[Sar][NMeV]; ester I:1-I:C, II:1-II:C; linker I:N-II:N via Actinocin(9to1)), the “overall islet insulin content” value in the test on Fetal rat islets was “did not significantly decrease overall islet insulin content”. For cholera toxin, in test [1], the induction of differentiation result is “found to induce differentiation”. As to `CC(C)Cn1c(=O)n(C)c(=O)c2[nH]cnc21` [IBMX], the intracellular calcium influx entry in the test with e21 islets is on record as “induced a calcium influx”.

In the case of “PPP: related peptide sharing approximately 70% amino acid homology with PYY; probably pancreatic polypeptide (PP) (APLEPVYPGDNATPEQMAQYAADLRRYINMLTRPRY; ends and bridges not checked; UniProt P01298 30-65, looked up)”, the “gain of glucose responsivity (glucose-stimulated insulin release)” value in the test with E21 fetal islets is listed as “did not stimulate gain of glucose responsivity”.

Take neuropeptide Y [NPY]: in the test on E21 fetal islets, the “gain of glucose responsivity (glucose-stimulated insulin release)” value was “did not stimulate gain of glucose responsivity”.

These data come from patent publication US7807641B2, “Methods and reagents for treating glucose metabolic disorders” (Curis, Inc., priority 1999, dated 2010).
